From PubChem BioAssay (NCI)
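Five compound concentrations were applied to cells in 96-well plates for 48 hours; endpoints were derived by simple linear interpolation of the resulting dose-response curve. At the GI50, growth is halved. TGI is the concentration that stops growth completely.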

Experiments:
Assay in all cases: growth of human tumour cells (NCI), 48 h
NCI-H23 lung = tested on: NCI-H23 lung
NCI-H460 lung = tested on: NCI-H460 lung
NCI-H522 lung = tested on: NCI-H522 lung
NCI/ADR-RES ovarian = tested on: NCI/ADR-RES ovarian
OVCAR-3 ovarian = tested on: OVCAR-3 ovarian
OVCAR-4 ovarian = tested on: OVCAR-4 ovarian
OVCAR-5 ovarian = tested on: OVCAR-5 ovarian
OVCAR-8 ovarian = tested on: OVCAR-8 ovarian
PC-3 prostate = tested on: PC-3 prostate
RPMI-8226 leukemia = tested on: RPMI-8226 leukemia
RXF 393 renal = tested on: RXF 393 renal
SF-268 CNS = tested on: SF-268 CNS
SF-295 CNS = tested on: SF-295 CNS
SF-539 CNS = tested on: SF-539 CNS
SK-MEL-2 melanoma = tested on: SK-MEL-2 melanoma
SK-MEL-28 melanoma = tested on: SK-MEL-28 melanoma
SK-MEL-5 melanoma = tested on: SK-MEL-5 melanoma
SK-OV-3 ovarian = tested on: SK-OV-3 ovarian
SN12C renal = tested on: SN12C renal
SNB-19 CNS = tested on: SNB-19 CNS
SNB-75 CNS = tested on: SNB-75 CNS
SR leukemia = tested on: SR leukemia
SW-620 colon = tested on: SW-620 colon
T-47D breast = tested on: T-47D breast
TK-10 renal = tested on: TK-10 renal
U251 CNS = tested on: U251 CNS
UACC-257 melanoma = tested on: UACC-257 melanoma
UACC-62 melanoma = tested on: UACC-62 melanoma
UO-31 renal = tested on: UO-31 renal

COc1cc(N2CCC(N3CCN(C)CC3)CC2)ccc1Nc1ncnc(Nc2ccccc2S(=O)(=O)C(C)C)n1
TGI (NCI-H23 lung): 36.6 µM
GI50 (NCI-H460 lung): 7.24 µM
TGI (NCI-H460 lung): 25.6 µM
GI50 (NCI-H522 lung): 4.65 µM
TGI (NCI-H522 lung): 14 µM
GI50 (NCI/ADR-RES ovarian): 7.26 µM
TGI (NCI/ADR-RES ovarian): 42.6 µM
GI50 (OVCAR-3 ovarian): 7.33 µM
TGI (OVCAR-3 ovarian): 28.1 µM
GI50 (OVCAR-4 ovarian): 8.93 µM
TGI (OVCAR-4 ovarian): 42.2 µM
GI50 (OVCAR-5 ovarian): 2.06 µM
TGI (OVCAR-5 ovarian): 12.8 µM
GI50 (OVCAR-8 ovarian): 3.52 µM
TGI (OVCAR-8 ovarian): 21.3 µM
GI50 (PC-3 prostate): 5.33 µM
TGI (PC-3 prostate): > 51.4 µM
GI50 (RPMI-8226 leukemia): 10.9 µM
TGI (RPMI-8226 leukemia): 41.9 µM
GI50 (RXF 393 renal): 3.42 µM
TGI (RXF 393 renal): 17.3 µM
GI50 (SF-268 CNS): 4.39 µM
TGI (SF-268 CNS): 28.7 µM
GI50 (SF-295 CNS): 4.55 µM
TGI (SF-295 CNS): 24 µM
GI50 (SF-539 CNS): 3.46 µM
TGI (SF-539 CNS): 14.6 µM
GI50 (SK-MEL-2 melanoma): 5.83 µM
TGI (SK-MEL-2 melanoma): 16.3 µM
GI50 (SK-MEL-28 melanoma): 10.9 µM
TGI (SK-MEL-28 melanoma): 34.9 µM
GI50 (SK-MEL-5 melanoma): 4.62 µM
TGI (SK-MEL-5 melanoma): 18.1 µM
GI50 (SK-OV-3 ovarian): 5.18 µM
TGI (SK-OV-3 ovarian): 30.5 µM
GI50 (SN12C renal): 2.89 µM
TGI (SN12C renal): 29.8 µM
GI50 (SNB-19 CNS): 4.98 µM
TGI (SNB-19 CNS): > 69.3 µM
GI50 (SNB-75 CNS): 3.63 µM
TGI (SNB-75 CNS): 15.9 µM
GI50 (SR leukemia): 0.104 µM
TGI (SR leukemia): 18.7 µM
GI50 (SW-620 colon): 3.68 µM
TGI (SW-620 colon): 39.5 µM
GI50 (T-47D breast): 5.18 µM
TGI (T-47D breast): 39.9 µM
GI50 (TK-10 renal): 5.21 µM
TGI (TK-10 renal): 22 µM
GI50 (U251 CNS): 4.34 µM
TGI (U251 CNS): 19.1 µM
GI50 (UACC-257 melanoma): 8.42 µM
TGI (UACC-257 melanoma): 27.3 µM
GI50 (UACC-62 melanoma): 8.35 µM
TGI (UACC-62 melanoma): 27.1 µM
GI50 (UO-31 renal): 2.62 µM
TGI (UO-31 renal): 12.6 µM
